The text below walks through data of article PMC7297445, “Pharmacokinetic/Pharmacodynamic Determination and Preclinical Pharmacokinetics of the β-Lactamase Inhibitor ETX1317 and Its Orally Available Prodrug ETX0282” (ACS Infectious Diseases, 2020).

Molecules are shown by their SMILES. In brackets after ≈: the same amount, converted by molar mass.

In data set [1] the test system is E. coli ARC2687. The data set can be described thus: MIC, broth microdilution (CLSI). It is filed as cell-based. As for the experimental part: (§1) MICs were determined utilizing a 1:2 ratio of cefpodoxime:ETX1317. […] The isolates utilized in the present study (Table 1) were broadly insensitive to CPD, presumably due to the presence of ESBLs and carbapenemases expressed in these strains. The addition of ETX1317 restored CPD activity to ≤1 μg/mL across all the tested isolates.
(§2) The MIC of each isolate was determined using the broth microdilution method following CLSI guidelines of document M07-A7 (CLSI M07-A7).
A general note: Dilution methods test growth across graded concentrations, often in twofold steps.

The next data set has as its system K. pneumoniae ARC4488. Briefly: MIC, broth microdilution (CLSI). Format: cell-based. As to the method:
as §1, §2

The test system of data set [2] is K. pneumoniae ARC5118. The data set can be described thus: MIC, broth microdilution (CLSI). It is filed as cell-based. As to the method:
as §1, §2

Data set [3] has as its system E. coli ARC2687. Briefly: Murine neutropenic thigh infection model. It is filed as in vivo, mouse. As for the experimental part:
(§3) In vivo neutropenic infection models in the mouse were conducted as previously described.[48],[49] All procedures were performed to Entasis approved IACUC policies and guidelines as well as OLAW standards. Briefly, Female CD-1 mice (20–22 g, Charles River Laboratories) were acclimated for 5 days prior to start of study. Animals were housed 3 per cage with free access to food and water. Mice were rendered neutropenic via two doses of cyclophosphamide on days −4 and −1 with 150 mg/kg and 100 mg/kg delivered intraperitoneally in a dose volume of 10 mL/kg, respectively.[48]
(§4) Enterobacteriaceae isolates ARC2687, ARC4488, ARC5118, NMC101, and ARC4419 were prepared for infection from an overnight plate culture. A portion of the plate was resuspended in sterile saline and adjusted to an OD of 0.1 at 625 nm. The adjusted bacterial suspension was further diluted to target an infecting inoculum of approximately 5.0 × 10^6–1.0 × 10^7 CFU/mouse. The actual inoculum size varied between 5.5 × 10^6–1.6 × 10^6 CFU/thigh and administered via intramuscular injection of (100 μL). Plate counts of the inoculum were performed to confirm inoculum concentration and treatment was initiated 2 h after bacterial challenge.
(§5) ETX0282 and CPDP were formulated in 0.5% HPMC/0.1% Tween 80 suspension. meropenem (utilized as a positive control) was solubilized in water for injection. All studies utilized a meropenem dosed at 600 mg/kg q6h subcutaneously as positive control against meropenem sensitive isolates (MIC ≤ 2 μg/mL) and as a negative control against meropenem resistant isolates. For dose arms utilizing a combination of ETX0282 and CPDP, both agents were reconstituted in the same vehicle. All dose concentrations were adjusted to deliver targeted mg/kg doses within a dose volume of 10 mL/kg. Formulation potency was verified by LC/MS/MS.
(§6) ETX0282 and CPDP were administered via q6h dose intervals in order to achieve targeted unbound exposures. At 24 h post initiation of therapy, animals were euthanized, tissue samples aseptically collected and homogenized. Bacterial colony enumeration of tissue homogenate was performed by serial dilution on TSA plates which were incubated overnight at 35 °C prior to colony (CFU) counting.

Data set [4] concerns K. pneumoniae ARC5118. Briefly: Murine neutropenic thigh infection model. It is filed as in vivo, mouse. As to the method: as §3, §4, §5, §6
Data set [5] relates to E. coli ARC4419. The data set can be described thus: Murine neutropenic thigh infection model. Particulars: 600 mg/kg s.c./q6h. Format: in vivo, mouse. As for the experimental part:
(§7) To further understand whether this in vitro activity translated to in vivo efficacy, an additional neutropenic thigh study was conducted in mice with increasing doses of ETX0282 alone vs E. coli NMC101 (ETX1317 MICBLI = 1 μg/mL) and ARC4419 (ETX1317 MICBLI = 0.25 μg/mL). […] Despite the significant exposure of ETX1317, a 200 mg/kg q6h dose of ETX0282 alone was ineffective for both strains (Table 6).
as §3, §4, §5, §6

In data set [6] the test system is E. coli NMC101. The data set can be described thus: Murine neutropenic thigh infection model. It is filed as in vivo, mouse. Particulars: 600 mg/kg s.c./q6h. As for the experimental part: as §7, §3, §4, §5, §6
Data set [7] deals with E. coli ARC4419. Briefly: MIC, broth microdilution (CLSI). Particulars: Escherichia coli, combination at 1:2 ratio cefpodoxime:ETX1317, MIC of CPD. Format: cell-based. As to the method: as §1, §2
Data set [8] deals with E. coli NMC101. Briefly: MIC, broth microdilution (CLSI). Conditions: Escherichia coli, combination at 1:2 ratio cefpodoxime:ETX1317, MIC of CPD. Format: cell-based. As for the experimental part: as §1, §2
The subject of another data set is K. pneumoniae ARC4420. The data set can be described thus: MIC, broth microdilution (CLSI). It is filed as cell-based. Conditions: Klebsiella pneumoniae, combination at 1:2 ratio cefpodoxime:ETX1317, MIC of CPD. As for the experimental part:
as §1, §2

Another data set relates to K. pneumoniae ARC4486. The data set can be described thus: MIC, broth microdilution (CLSI). Format: cell-based. Conditions: Klebsiella pneumoniae, combination at 1:2 ratio cefpodoxime:ETX1317, MIC of CPD. As for the experimental part: as §1, §2
Data set [9] concerns E. coli strain (ATCC 25922). The data set can be described thus: MIC. It is filed as cell-based. Conditions: Escherichia coli, ATCC25922; susceptible strain.
Excerpt: All in vivo efficacy studies were supported with PK of ETX1317 and CPD following oral administration of ETX0282 and CPDP. For the purposes of understanding the exposure-PD response relationship, total systemic concentrations of ETX1317 and cefpodoxime were normalized to unbound drug levels after accounting for protein binding with percent unbound estimates of 93% and 66%, respectively, in mouse plasma (Table S2). An in vivo dose range study with CPDP administered alone against a susceptible E. coli strain (ATCC 25922, CPD MIC = 0.5 μg/mL) was completed initially in a murine neutropenic thigh model to confirm its PK/PD target. In this study a 50 mg/kg oral dose of CPDP administered q6h was consistent with achieving 1–log kill over 24 h. […] Oral exposure was generally dose proportional to 50 mg/kg; however, it became less than dose proportional at ≥200 mg/kg.
as §2

The subject of data set [10] is Enterobacteriaceae isolates. The data set can be described thus: Hollow-fiber and chemostat models, strains combined. It is filed as cell-based, E. coli, K. pneumoniae. Particulars: infused alone, both models. As to the method:
The PK/PD driver of ETX1317 was assessed in the presence of CPD in both hollow-fiber[28]−[31] and chemostat[32]in vitro infection model systems. In all cases, CPD was administered q12h via a 2 h infusion and eliminated with a 2 h half-life, with the concentration of drug exceeding the MIC (the MIC of CPD in the presence of ETX1317 at a 1:2 ratio) for 50% of the dosing interval for each strain. Representative Emax plots are shown graphically for Escherichia coli ARC2687 in the hollow-fiber model and Klebsiella pneumoniae ARC4420 in the chemostat system (Figure 2). […] This could partially be attributed to the distribution of the concentration ranges utilized for the hollow-fiber infection model (HFIM) where most of the data scatter occurred in the efficacious dose range for lower MIC strains. It is important to note that initial evaluation of K. pneumoniae ARC4420 and ARC5118 was completed in the HFIM but rapid degradation of CPD, presumably through accumulation of β-lactamases in the extra-capillary space of the cartridge precluded a reliable assessment of the PK/PD driver with these strains in this model.[32] […] In both the HFIM and chemostat models the optimum critical threshold of ETX1317 was established through iterative Emax fitting of a range of ETX1317 concentrations from 0.5× to 2× the CPD:ETX1317 MIC value. In the HFIM, %Time > ETX1317 CT of 2× MIC provided the highest correlation to observed activity which appeared to be independent to the apparent intrinsic activity of ETX1317 (as reflected by ETX1317 MICBLI of K. pneumoniae ARC4486 vs ARC4488). […] In both models CPD infused alone mimicked vehicle control as expected with similar growth of +2 to 4 log10 CFU/mL.
PK/PD-derived exposure targets for BLIs have utilized various approaches for clinical dose setting. The use of a singular critical threshold value independent of MIC has been used for recent BL/BLI combinations such as ceftazidime/avibactam[34] aztreonam/avibactam,[35] but this has been problematic to correlate activity across a broad range of MICs. More recent work with ceftolozane/tazobactam[36] and other BLI combinations[37],[38] considers a critical threshold value that varies proportionally to the MIC value. […] Convergence of the data to a threshold value related to MIC simplifies dose setting and, in this case, appears to be consistent across a broad range of susceptibility (0.125–1 μg/mL).
Dose range and dose fractionation were performed in hollow-fiber infection model (HFIM) and chemostat (one-compartment) in vitro infection model. […] CPD concentrations were targeted to achieve exposure of ∼50%Time > MIC determined in the presence of ETX1317. […] Bacterial burden (CFU/mL) was serially assessed by sampling (500 μL) from the extra-capillary space of the HFIM cartridge at predetermined time points. […]

A further data set is described as follows: Plasma protein binding. It is filed as in vitro ADME, mouse. Particulars: mouse plasma; read-out: percent unbound. As to the method: Plasma protein binding was determined by rapid equilibrium dialysis. Plasma was freshly prepared from blood samples drawn in to EDTA (anticoagulant) containing tubes. Plasma was prepared using a table-top centrifuge and spun per instruction of the tube manufacturer and specifications (Beckton, Dickinson and Company, Franklin Lakes, NJ) and placed on ice prior to use.
Pooled plasma samples were centrifuged at 2000 rpm (approximately 1400g) for 15 min at 4 °C to remove debris. Approximately 90% of the clear supernatant fraction was transferred to a separate tube. Samples (500 μL) were then spiked with a 100× stock solution 100 μM, 0.5 mM, and 10 mM ETX1317 in DMSO respectively for 1, 5, and 100 μM final concentrations, transferred to the top of the filter chambers, and allowed to equilibrate for 15 min prior to centrifugation. The filtrate tubes were centrifuged at 14000g for 15 min at 4 °C. Next, 50 μL of the filtrate was precipitated with 300 μL of acetonitrile containing 250 ng/mL of carbutamide as the internal standard and the samples were analyzed by LC/MS/MS analysis.

For data set [11] the following is noted: cited from earlier work.
[12] abbreviates: q6h, 24 h, cidal = ≥1 log10 CFU/g reduction.

As for `C[C@@H](O)[C@H]1C(=O)N2C(C(=O)O)=C(S[C@@H]3CN[C@H](C(=O)N(C)C)C3)[C@H](C)[C@H]12` [meropenem], the susceptibility to meropenem result with E. coli ARC2687 [1] (ESBL producer) is on record as “maintain susceptibility to meropenem”; with K. pneumoniae ARC4488 (ESBL producer) it was “maintain susceptibility to meropenem”; in the data set with K. pneumoniae ARC5118 [2] (KPC-producing isolate) it was “resistant to meropenem”. In addition, the “log10 CFU/g thigh change 24 h post therapy initiation” value in the data set on E. coli ARC2687 [3] (600 mg/kg s.c./q6h) is given as “–1.46 log10 CFU/g”; in the data set on K. pneumoniae ARC5118 [4] (600 mg/kg s.c./q6h), “+2.04 log10 CFU/g”; in the data set with E. coli ARC4419 [5], “–2.19 log10 CFU/g”; in the data set on E. coli NMC101 [6], “–1.36 log10 CFU/g”. For the same compound, the “in vivo efficacy in words” value in the data set with E. coli ARC2687 [3] (setting [12]) is recorded as “cidal activity”; with K. pneumoniae ARC5118 [4] (setting [12]), “not against K. pneumoniae ARC5118”.
On to `COCC1=C(C(=O)O)N2C(=O)[C@@H](NC(=O)/C(=N\OC)c3csc(N)n3)[C@H]2SC1` [cefpodoxime], for which the MIC – broadly, the smallest concentration in the dilution series that meets the test's criterion for growth inhibition – was greater than 64 µg/mL with E. coli ARC2687 [1] (Escherichia coli, ARC2687, combination at 1:2 ratio cefpodoxime:ETX1317, MIC of CPD); 64 µg/mL in the data set with E. coli ARC4419 [7]; greater than 64 µg/mL in the data set on E. coli NMC101 [8]; greater than 64 µg/mL in the data set with K. pneumoniae ARC4420; greater than 64 µg/mL in the data set on K. pneumoniae ARC4486; greater than 64 µg/mL in the data set on K. pneumoniae ARC4488 (Klebsiella pneumoniae, ARC4488, combination at 1:2 ratio cefpodoxime:ETX1317, MIC of CPD). Further, the minimal inhibitory concentration (MIC) was greater than 64 µg/mL with K. pneumoniae ARC5118 [2] (Klebsiella pneumoniae, ARC5118, combination at 1:2 ratio cefpodoxime:ETX1317, MIC of CPD) and 0.5 µg/mL (≈ 1.17 µM) in [9]. In data set [10], the growth result is “+2 to 4 log10 CFU/mL”. Besides, in “Plasma protein binding”, the fraction unbound at 15 min worked out at 0.66. In data set [11] (400 mg q12h (800 mg/day)), the “% of dosing interval with mean unbound concentrations exceeding at least 0.5 μg/mL” value is “greater than 50%”. For the same compound, the half-life in humans in data set [11] (humans) is listed as 2 h. In addition, the F% result in data set [11] (oral proxetil ester prodrug, top dose 400 mg q12h) is given as “≈ 50%”.
